The values that follow come from patent US20160243142A1, “AVICIN D FOR TREATMENT OF MANTLE CELL LYMPHOMA” (Research Development Foundation, priority 2015, published 2016).

Series [1] can be described thus: Toxicity / body weight in Mino xenograft bearing NODscid mice. It counts as in vivo. The following applies: for tolerability of dosing protocols: 0.5, 1.0 and 1.0-2.0 mg/kg s.c. daily; for animals removed from the study due to drug toxicity / treatment related deaths (TR): Group 5: escalating 1.0-2.0 mg/kg s.c., N = 10. As to the method: (§1) Animals were treated according to Table 3 below. Animals were dosed in the opposite flank opposing the tumors at 10 mL/kg. Daily clinical observations were made and body weights and tumor measurements were performed thrice weekly. Animals were maintained on study until their tumor burden reached the study endpoint of 2000 mm^3. Animals were euthanized at the study endpoint with terminal cardiocentesis performed for serum collection and plasma preparation in K2EDTA. Tumors were excised and fixed in 10% formalin.
Non-treatment related deaths (NTR), non-treatment metastatic related deaths (NTRm), and treatment related deaths (TR) were monitored. Animal body weight was monitored three times weekly throughout the study and mean % body weight loss was calculated and plotted with GraphPad Prism 5.0. Animals displaying >20% body weight loss were to be euthanized and recorded as TRs.

In series [2] the test system is Mino mantle cell lymphoma xenograft. In words: Tumor growth delay in Mino mantle cell lymphoma xenograft bearing NODscid mice. It counts as in vivo. Particulars: for PR (partial response): N = 10; for Log10 cell kill (750 mm^3): activity threshold 0.7.
Description: 80 NOD .CB17 -Prkdcscid/J (NOD scid) (JAX, West Sacramento, Calif.) 4-6 week old female mice were transferred to the in vivo research laboratory in West Sacramento, CA. The mice were ear notched for identification and housed in individually and positively ventilated polycarbonate cages with HEPA filtered air at a density of five mice per cage. Bed-o'cobs® bedding was used and cages were changed every two weeks. The animal room was illuminated entirely with artificial fluorescent lighting, with a controlled 12 h light/dark cycle (7 am to 7 pm light). The normal temperature and relative humidity ranges in the animal rooms were 22±4° C. and 50±15%, respectively. The animal rooms were set to have 15 air exchanges per hour. Filtered tap water, acidified to a pH of 2.8 to 3.1, and LabDiet 5LL4 were provided ad libitum.
Mino Mantle Cell Lymphoma cells (ATCC catalogue #CRL-3000™, Manassas, Va.) were maintained in RPMI 1640 with 2 mM 1-glutamine, 25 mM HEPES, 4.5 g/L D-glucose (Invitrogen, San Diego, Calif.) supplemented with 10% ES cell certified fetal bovine serum (Hyclone, Logan, Utah). The cells were suspended at 1×10^8 cells/ml in serum free media, and 80 mice were subcutaneously injected in the rear right flanks with 10^7 cells in 100 μL. Tumor volumes were monitored with ULTRA-Cal IV digital calipers (Fowler, Newton, Mass.), and 50 animals were tumor size rank matched into five cohorts of 10 animals with mean tumor volumes of approximately 150 mm^3.
as §1
Animals were euthanized when the tumors had reached the 2000 mm^3 study endpoint, and the tumors were harvested, weighed, and placed in 10% formalin. Table 4 summarizes the clinical observation schedule and the body weight and tumor measurement schedule performed.
Tumor volumes were calculated from digital caliper raw data by using the formula: […]
The value w (width) was the smaller of two perpendicular tumor axes and the value l (length) was the larger of two perpendicular axes.
The tumor growth delay (TGD) method was used to analyze drug treatment effects on time (days) to tumor endpoint (TTE) for Mino tumor response. The tumor endpoint volume for TTE analysis was set at 2000 mm^3 and TTE was defined in days by the formula: […]
The value for b was the (y) intercept and m was the slope of the line calculated from a linear regression of log-transformed tumor growth data for each tumor calculated from a minimum of three time points preceding 2000 mm^3 and a minimum of one that surpassed the time point for 2000 mm^3. Treatment initiated when tumors reached approximately 150 mm^3, and animals were drugged according to Table 3. Tumors were monitored until animals were euthanized due to tumors reaching a 2000 mm^3 endpoint, and the study was concluded on day 59 post drug treatment initiation.
Treatment efficacy was determined by comparing TTE values calculated for each treatment group and by calculating percent tumor growth delay for each treatment group:
T represented the median TTE in days for a drug treatment group and C represented the median TTE in days for the control group. Statistical significance for median TTE values for treatment group comparisons was determined by the Log-rank test with GraphPad Prism 5.0 software (GraphPad, La Jolla, Calif.). A 95% confidence value was used for two-tailed statistical analyses. Log-rank survival curves were plotted based on survival to 2000 mm3 to visualize the statistical significance of the median TTE values between treatment groups. […]

The conditions of series [3]: approved dose; alternative treatment 1.9 months; cited from earlier work.
[4] abbreviates: Group 1 vs. Group 3: vehicle control vs. 0.5 mg/kg s.c.
The mark [5] stands for this setting: Group 1 vs. Group 4: vehicle control vs. 1.0 mg/kg s.c.
[6] abbreviates: Group 1 vs. Group 5: vehicle control vs. 1.0-2.0 mg/kg s.c.
Setting [7] is: Group 3: 0.5 mg/kg s.c. daily days 1-33.
Setting [8] is: Group 3 vs. Group 4: 0.5 mg/kg vs. 1.0 mg/kg s.c.
Setting [9] is: Group 3 vs. Group 5: 0.5 mg/kg vs. 1.0-2.0 mg/kg s.c.
[10] abbreviates: Group 4: 1.0 mg/kg s.c. daily days 1-2, 5-33.
[11] abbreviates: Group 4 vs. Group 5: 1.0 mg/kg vs. 1.0-2.0 mg/kg s.c.
The mark [12] stands for this setting: Group 5: escalating 1.0-2.0 mg/kg s.c. daily days 1-2, 5-33.
Setting [13] is: 3.3 mg/kg i.v. days 1 and 8 (Group 2).

The structures appear in SMILES notation. “Also recorded” adds a separate entry of the source.

As to `C=CC(C)(O)CC/C=C(\CO)C(=O)O[C@@H]1C(C)O[C@@H](O[C@](C)(C=C)CC/C=C(\CO)C(=O)O[C@H]2C[C@@]3(C(=O)O[C@@H]4OC(CO)[C@@H](O)C(O)C4O[C@@H]4OC(C)[C@H](O[C@@H]5O[C@@H](CO)C(O)[C@@H]5O)C(O[C@@H]5OC(CO)[C@@H](O)C(O)C5O)C4O)C(CC2(C)C)C2=CCC4[C@@]5(C)CC[C@H](O[C@@H]6OC(CO[C@@H]7OC(C)[C@H](O)C(O)C7O[C@@H]7OC[C@@H](O)C(O)C7O)[C@@H](O)C(O)C6NC(C)=O)C(C)(C)C5CC[C@@]4(C)[C@]2(C)C[C@H]3O)C(O)C1O` (some centres unmarked) [AVD-001], the “nadir mean % body weight change” value in series [1] (0.5 mg/kg dose cohort, day 2) is −4.43%; in series [1] (1.0 mg/kg dose cohort, day 3) it was −11.82%. Also, the “tolerability of dosing protocols” value in series [1] was “generally well-tolerated”; in series [1] (listed as Avicin) it was “generally well tolerated”. In series [1] (Group 3 (0.5 mg/kg s.c.), peaked at day 2), this molecule had a body weight loss of 4%. The “animals removed from the study due to drug toxicity / treatment related deaths (TR)” value was “Two” in series [1]; “two and Two” in series [1] (listed as Avicin). Moreover, the “transient body weight loss” value in series [1] (Groups 4 and 5 (1.0 and 1.0-2.0 mg/kg s.c.), dosing suspended days 3 and 4) turned out to be 10%. The “nadir average % body weight change” value in series [1] (escalating dose 1.0-2.0 cohort, day 3) is listed as −10.42%. In series [1] (several Group 3, 4 and 5 mice, s.c.), the injection site findings entry was “irritation and/or bleeding at the injection site”. Moreover, the “Hazard Ratio” value in series [2] (setting [4]) was determined as 3.159; in series [2] (setting [5]), 3.492; in series [2] (setting [6]), 10.36; in series [2] (setting [8]) it was 1.588; in series [2] (setting [9]), 5.491; in series [2] (setting [11]), 1.674. In addition, the “Median survival Ratio (control/treated)” value in series [2] (setting [4]) is given as 0.7412; in series [2] (setting [5]), 0.6941; in series [2] (setting [6]), 0.5675. In addition, the “Median Survival (to 2000 mm^3)” value worked out at 29.2 days in series [2] (Group 3: 0.5 mg/kg s.c.), 31.18 days in series [2] (Group 4: 1.0 mg/kg s.c.) and 38.14 days in series [2] (Group 5: 1.0-2.0 mg/kg s.c.). Besides, the “% TGD (tumor growth delay)” value in series [2] (setting [7]) stood at 34.9%; in series [2] (setting [10]), 44.1%; in series [2] (setting [12]), 76.2%. Besides, the “Median TTE (time to tumor endpoint, 2000 mm^3)” value in series [2] (setting [7]) came out at 29.2 days; in series [2] (setting [10]), 31.2 days; in series [2] (setting [12]), 38.1 days. Further, the “PR (partial response)” value in series [2] (Group 3: 0.5 mg/kg s.c.) was 3; in series [2] (Group 4: 1.0 mg/kg s.c.) it was 4; in series [2] (Group 5: 1.0 to 2.0 mg/kg s.c.) it was 6. In addition, the “Log10 cell kill (750 mm^3)” value in series [2] (Group 3: 0.5 mg/kg s.c.) was 0.57; in series [2] (Group 4: 1.0 mg/kg s.c.), 0.45; in series [2] (Group 5: 1.0 to 2.0 mg/kg s.c.), 0.89. For the same molecule, the “Median survival Ratio” value in series [2] (setting [8]) came out at 0.9365; in series [2] (setting [9]) it was 0.7657; in series [2] (setting [11]), 0.8177.
For the molecule `CO[C@H]1C[C@@H]2CC[C@@H](C)[C@@](O)(O2)C(=O)C(=O)N2CCCC[C@H]2C(=O)O[C@H]([C@H](C)C[C@@H]2CC[C@@H](OC(=O)C(C)(CO)CO)[C@H](OC)C2)CC(=O)[C@H](C)/C=C(\C)[C@@H](O)[C@@H](OC)C(=O)[C@H](C)C[C@H](C)/C=C/C=C/C=C/1C` [Torisel, temsirolimus], the “average time lived without disease getting worse” value in series [3] was 4.8 months.
`COc1cccc2c1C(=O)c1c(O)c3c(c(O)c1C2=O)C[C@@](O)(C(=O)CO)C[C@@H]3O[C@H]1C[C@H](N)[C@H](O)[C@H](C)O1` [Adriamycin, doxorubicin, reference compound]: in series [1] (setting [13]), the “day by which animals were removed from study” value was not above 16 days and the “toxicity of positive control” value was “significant body weight loss; also recorded: severe toxicity”. The “toxicity of positive control” value in series [1] (3.3 mg/kg i.v. days 1 and 8 (Group 2), listed as adriamycin) is reported as “significant treatment-related body weight loss”.
